Measured values from patent EP4813991A1 (iLeadBMS Co., Ltd., priority 2023, dated 2025).
Like-named read-outs stand apart in the source and are kept apart here.

What was measured:
[1] = target: T1, CDK12 (Homo sapiens, UniProt Q9NYV4); assay: CDK12 kinase inhibitory activity assay (33P-ATP filter binding); type: biochemical
Description: (§1) Before initiating the CDK12 and CDK13 kinase reactions, each Example compound was dissolved and diluted in DMSO as a solvent across 9 concentration ranges at room temperature. The diluted solutions were then incubated with a mixture of kinase and substrate (and cofactors, if required) for 20 minutes. Next, radioisotope-labeled ATP (^33P-gamma-ATP) was added to proceed with the kinase reaction at room temperature for 120 minutes. After the reaction was completed, the reaction mixture was transferred to a filter paper that binds the radioisotope-labeled catalytic product (^33P-substrate). Unreacted ^33P-ATP was removed by washing with 0.75 % phosphoric acid, and then the radioactive phosphorylated substrate remaining on the filter paper was measured. Kinase activity data were expressed as a percentage of the kinase activity remaining in the test sample compared to a DMSO control group. The half-maximal inhibitory concentration (IC50) for each kinase was calculated using Prism (Graphpad) software.

[2] = target: CDK13 (Homo sapiens, UniProt Q14004); assay: CDK13 kinase inhibitory activity assay (33P-ATP filter binding); type: biochemical
Chain of CDK13 (Q14004 whole entry, species assumed): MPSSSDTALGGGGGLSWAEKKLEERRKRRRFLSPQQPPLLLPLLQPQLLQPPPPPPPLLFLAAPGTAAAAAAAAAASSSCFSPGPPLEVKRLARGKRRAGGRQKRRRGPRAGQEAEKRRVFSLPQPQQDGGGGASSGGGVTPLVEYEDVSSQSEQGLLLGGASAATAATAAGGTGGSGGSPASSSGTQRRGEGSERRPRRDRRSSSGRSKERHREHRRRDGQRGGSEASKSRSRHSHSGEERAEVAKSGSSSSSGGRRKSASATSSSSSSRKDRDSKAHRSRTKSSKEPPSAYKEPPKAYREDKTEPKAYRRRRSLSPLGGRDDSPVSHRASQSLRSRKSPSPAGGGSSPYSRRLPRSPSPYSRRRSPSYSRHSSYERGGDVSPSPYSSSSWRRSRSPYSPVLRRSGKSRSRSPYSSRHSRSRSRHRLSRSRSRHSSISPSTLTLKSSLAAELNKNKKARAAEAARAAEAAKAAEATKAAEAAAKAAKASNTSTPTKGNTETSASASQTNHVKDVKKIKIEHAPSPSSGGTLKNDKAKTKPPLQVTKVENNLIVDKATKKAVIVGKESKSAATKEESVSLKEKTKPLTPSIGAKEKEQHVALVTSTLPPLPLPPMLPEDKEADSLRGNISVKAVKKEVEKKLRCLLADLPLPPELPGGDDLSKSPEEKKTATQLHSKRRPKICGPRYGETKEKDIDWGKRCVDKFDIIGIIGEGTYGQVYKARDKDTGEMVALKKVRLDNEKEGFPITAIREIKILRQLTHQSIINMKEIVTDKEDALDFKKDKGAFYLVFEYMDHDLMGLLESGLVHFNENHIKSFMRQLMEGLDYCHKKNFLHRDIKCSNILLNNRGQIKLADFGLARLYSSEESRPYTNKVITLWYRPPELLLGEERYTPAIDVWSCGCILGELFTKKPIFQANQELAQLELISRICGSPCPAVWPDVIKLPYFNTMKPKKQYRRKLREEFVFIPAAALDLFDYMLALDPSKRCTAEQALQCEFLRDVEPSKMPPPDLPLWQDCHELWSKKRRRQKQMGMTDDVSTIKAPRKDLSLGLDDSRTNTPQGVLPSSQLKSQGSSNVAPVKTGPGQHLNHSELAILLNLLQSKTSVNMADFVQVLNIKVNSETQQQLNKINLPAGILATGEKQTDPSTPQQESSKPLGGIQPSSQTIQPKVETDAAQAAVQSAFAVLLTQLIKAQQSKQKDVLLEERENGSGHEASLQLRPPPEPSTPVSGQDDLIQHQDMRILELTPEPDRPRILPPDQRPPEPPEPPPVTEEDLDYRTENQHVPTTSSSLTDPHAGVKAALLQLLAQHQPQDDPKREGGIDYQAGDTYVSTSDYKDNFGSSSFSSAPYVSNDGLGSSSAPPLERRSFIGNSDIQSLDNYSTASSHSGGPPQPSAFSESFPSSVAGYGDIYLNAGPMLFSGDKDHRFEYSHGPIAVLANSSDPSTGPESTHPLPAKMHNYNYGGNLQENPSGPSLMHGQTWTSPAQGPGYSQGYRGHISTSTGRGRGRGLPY
Chain of CDK13 (O75909 whole entry partner, species assumed): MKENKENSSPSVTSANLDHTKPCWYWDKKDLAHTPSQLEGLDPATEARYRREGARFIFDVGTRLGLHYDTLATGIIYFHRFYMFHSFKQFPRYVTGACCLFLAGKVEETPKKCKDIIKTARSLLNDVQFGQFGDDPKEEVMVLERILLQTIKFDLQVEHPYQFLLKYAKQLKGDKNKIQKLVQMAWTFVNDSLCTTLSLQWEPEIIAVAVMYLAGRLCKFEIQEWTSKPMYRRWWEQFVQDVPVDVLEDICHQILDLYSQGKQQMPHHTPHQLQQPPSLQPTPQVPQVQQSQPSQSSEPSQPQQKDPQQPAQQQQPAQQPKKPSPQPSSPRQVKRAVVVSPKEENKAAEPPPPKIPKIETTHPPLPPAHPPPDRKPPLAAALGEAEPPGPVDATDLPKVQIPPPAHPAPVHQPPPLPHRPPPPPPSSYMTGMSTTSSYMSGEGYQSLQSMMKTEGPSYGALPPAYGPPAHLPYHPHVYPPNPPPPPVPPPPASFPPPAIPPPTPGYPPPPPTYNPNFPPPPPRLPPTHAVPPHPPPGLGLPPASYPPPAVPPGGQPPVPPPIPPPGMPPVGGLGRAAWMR
Description: as §1

[3] = system: MDA-MB-231 breast cancer cells; assay: Proliferation inhibitory activity assay against MDA-MB-231 breast cancer cells; type: cell-based; settings: Homo sapiens, 72 hours, CellTiter Glo, relative IC50
Description: Experiments were performed using the MDA-MB-231 breast cancer cell line to measure the cell proliferation inhibitory ability of each Example compound. MDA-MB-231 cells were dispensed into a 96-well plate at 100 µL of cell suspension per well using L-15 (Invitrogen) medium containing 10 % FBS, followed by incubation in a cell incubator at 37 °C and 0 % CO2. The next day, each Example compound dissolved and diluted in DMSO across 9 concentration ranges and a DMSO control group were treated on the cells for 72 hours. After the compound treatment was completed, 100 µL of CellTiter Glo (Promega) reagent was added to each well of the 96-well plate, followed by shaking for 10 minutes and standing at room temperature for 10 minutes. Luminescence signals were measured after inserting the 96-well plate into an Envision plate reader (PerkinElmer). Relative IC50 values were calculated by fitting a dose-response curve using XLfit (IDBS Ltd) software.
The breast cancer cell proliferation inhibitory activities of the Example compounds measured by the above method were evaluated according to the following criteria, and the results are presented in Table 13.

[4] = target: T1, CDK12; assay: Cellular CDK12 inhibitory activity assay (Ser2 phosphorylation of RNA polymerase II subunit B1 CTD in MDA-MB-231 cells); type: cell-based; design: using MDA-MB-231 breast cancer cells; endogenous in cells; host or cells: MDA-MB-231; settings: MDA-MB-231 cells, 6 hours treatment; read-out: pRpbl CTD S2 IC50
Description: MDA-MB-231 cells were dispensed into a 96-well plate at 100 µL of cell suspension per well using L-15 (Invitrogen) medium containing 10 % FBS, followed by overnight incubation in a cell incubator at 37 °C and 0 % CO2. The next day, each Example compound dissolved in DMSO across 9 concentration ranges and a DMSO control group were treated on the MDA-MB-231 cells at 37 °C and 0 % CO2 for 6 hours. After the compound treatment, the medium in the 96-well plate was removed, and 60 µL of a fixing solution (4.0 % paraformaldehyde in PBS) was added to each well, followed by standing for 20 minutes. After removing the fixing solution and washing with PBS, 60 µL of PBS containing 0.1 % Triton X-100 was dispensed into each well, followed by shaking at room temperature for 15 minutes. After washing with PBS, 100 µL of blocking buffer was added, followed by shaking at room temperature for 1 hour. After removing the blocking buffer, primary antibodies, which are RNA polymerase II subunit B1 phospho-Ser2 (1:500, Cell signaling technology) and RNA polymerase II subunit B1 carboxy-terminal domain (1:200, Cell signaling technology), were added at 60 µL per well and reacted overnight at 4 °C. After adding 150 µL of PBS containing 0.1 % Triton X-100 and washing at least twice by shaking at room temperature for 5 minutes, 60 µL of a secondary antibody was added, followed by shaking at room temperature for 1 hour while blocking light. After adding 150 µL of PBS containing 0.1 % Triton X-100 and washing at least twice by shaking at room temperature for 5 minutes, 150 µL of PBS was added again, followed by washing at least twice by shaking at room temperature for 5 minutes. The plate was scanned using a Li-COR Odyssey machine with the wells filled with PBS. IC50 values were calculated by fitting a dose-response curve using a 4-parameter model of Prism (Graphpad) software.

[5] = kinase reaction 120 minutes, 33P-gamma-ATP, read-out: CDK12 IC50
[6] = kinase reaction 120 minutes, 33P-gamma-ATP, read-out: CDK13 IC50

T1 sequence (Q9NYV4 whole entry, species assumed): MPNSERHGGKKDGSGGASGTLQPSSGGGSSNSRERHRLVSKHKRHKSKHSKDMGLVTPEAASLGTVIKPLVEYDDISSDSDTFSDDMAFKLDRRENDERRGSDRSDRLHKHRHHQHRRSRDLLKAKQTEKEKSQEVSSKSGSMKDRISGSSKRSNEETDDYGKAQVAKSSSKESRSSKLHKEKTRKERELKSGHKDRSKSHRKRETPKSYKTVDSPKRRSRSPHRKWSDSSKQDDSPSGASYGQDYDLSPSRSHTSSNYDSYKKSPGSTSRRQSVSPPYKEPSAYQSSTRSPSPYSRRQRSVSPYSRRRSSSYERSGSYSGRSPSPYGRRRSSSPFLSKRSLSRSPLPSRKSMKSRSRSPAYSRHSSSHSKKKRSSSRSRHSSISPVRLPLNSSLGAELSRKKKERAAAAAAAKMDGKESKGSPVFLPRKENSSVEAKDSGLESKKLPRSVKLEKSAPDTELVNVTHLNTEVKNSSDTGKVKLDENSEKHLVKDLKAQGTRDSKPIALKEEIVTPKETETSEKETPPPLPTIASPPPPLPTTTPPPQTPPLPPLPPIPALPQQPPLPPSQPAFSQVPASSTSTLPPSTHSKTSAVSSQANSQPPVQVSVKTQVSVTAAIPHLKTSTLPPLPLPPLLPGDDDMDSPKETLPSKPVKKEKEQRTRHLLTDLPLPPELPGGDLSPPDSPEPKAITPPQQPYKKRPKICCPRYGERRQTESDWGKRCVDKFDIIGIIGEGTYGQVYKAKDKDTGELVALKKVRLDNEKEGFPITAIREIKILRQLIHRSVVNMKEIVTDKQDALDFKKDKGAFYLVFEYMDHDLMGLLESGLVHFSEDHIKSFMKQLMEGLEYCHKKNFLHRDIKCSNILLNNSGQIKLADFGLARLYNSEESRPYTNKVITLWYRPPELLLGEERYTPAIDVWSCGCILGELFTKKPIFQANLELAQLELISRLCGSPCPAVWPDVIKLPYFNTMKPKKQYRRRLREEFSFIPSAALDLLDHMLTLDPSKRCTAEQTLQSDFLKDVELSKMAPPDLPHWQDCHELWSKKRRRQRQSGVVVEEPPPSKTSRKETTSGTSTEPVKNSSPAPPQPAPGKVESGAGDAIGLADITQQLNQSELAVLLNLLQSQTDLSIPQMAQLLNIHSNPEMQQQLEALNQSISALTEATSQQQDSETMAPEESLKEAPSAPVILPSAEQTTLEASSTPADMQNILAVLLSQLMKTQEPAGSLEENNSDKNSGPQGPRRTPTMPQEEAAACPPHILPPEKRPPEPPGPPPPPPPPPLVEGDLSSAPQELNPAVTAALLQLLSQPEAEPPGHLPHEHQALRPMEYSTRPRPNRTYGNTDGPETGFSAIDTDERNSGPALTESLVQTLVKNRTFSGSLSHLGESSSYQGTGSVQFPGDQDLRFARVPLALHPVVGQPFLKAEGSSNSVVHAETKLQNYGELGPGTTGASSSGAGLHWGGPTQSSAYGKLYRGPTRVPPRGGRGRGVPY
T1 sequence (O75909 whole entry partner, species assumed): as the sequence (O75909 whole entry partner, species assumed) above

| Compound | IC50 [1, 5] [nM] | IC50 [2] [nM] | IC50 [3] [nM] | IC50 [4] [nM] | IC50 [2, 6] [nM] | IC50 [1] [nM] |
| --- | --- | --- | --- | --- | --- | --- |
| N#CC1CN(c2cc(NCc3nc4ccc(Cl)c(Cl)c4[nH]3)c3ncc(C(F)(F)F)n3n2)C1 [Example 55, 1-(8-(((6,7-dichloro-1H-benzo[d]imidazol-2-yl)methyl)amino)-3-(trifluoromethyl)imidazo[1,2-b]pyridazin-6-yl)azetidine-3-carbonitrile] | < 100 |  | 50 to 500 | 300 to 3000 | < 100 |  |
| CN1CC2CCC(C1)N2c1cc(NCc2nc3cc(Cl)c(Cl)cc3[nH]2)c2ncc(C(F)(F)F)n2n1 [Example 96, N-((5,6-dichloro-1H-benzo[d]imidazol-2-yl)methyl)-6-(3-methyl-3,8-diazabicyclo[3.2.1]octan-8-yl)-3-(trifluoromethyl)imidazo[1,2-b]pyridazin-8-amine] | 100 to 500 |  | ≤ 50 | < 300 | < 100 |  |
| FC(F)(F)c1cnc2c(NCc3nc4cc(Cl)c(Cl)cc4[nH]3)cc(N3CC4CC(C4)C3)nn12 [Example 31, 6-(3-azabicyclo[3.1.1]heptan-3-yl)-N-((5,6-dichloro-1H-benzo[d]imidazol-2-yl)methyl)-3-(trifluoromethyl)imidazo[1,2-b]pyridazin-8-amine] | > 500 |  | > 500 | 300 to 3000 | 100 to 500 |  |
| Fc1ccc2nc(CNc3cc(N4CCOCC4)nn4c(Cl)cnc34)[nH]c2c1F [Example 27, 3-chloro-N-((6,7-difluoro-1H-benzo[d]imidazol-2-yl)methyl)-6-morpholinoimidazo[1,2-b]pyridazin-8-amine] |  |  | > 500 | > 3000 | > 500 | > 500 |
| FC(F)(F)c1cnc2c(NCc3nc4cc(Cl)c(Cl)cc4[nH]3)cc(N3C4CCC3CNC4)nn12 [Example 95, 6-(3,8-diazabicyclo[3.2.1]octan-8-yl)-N-((5,6-dichloro-1H-benzo[d]imidazol-2-yl)methyl)-3-(trifluoromethyl)imidazo[1,2-b]pyridazin-8-amine] | < 100 |  | ≤ 50 | < 300 | < 100 |  |
| C[C@@H]1CN(c2cc(NCc3nc4cc(F)c(F)cc4[nH]3)c3ncc(C(F)(F)F)n3n2)C[C@H](C)N1 [Example 112, N-((5,6-difluoro-1H-benzo[d]imidazol-2-yl)methyl)-6-((3S, 5R)-3,5-dimethylpiperazin-1-yl)-3-(trifluoromethyl)imidazo[1,2-b]pyridazin-8-amine] | < 100 |  | ≤ 50 | < 300 | < 100 |  |
| CC1(O)CCN(c2cc(NCc3nc4cc(Cl)c(Cl)cc4[nH]3)c3ncc(C(F)(F)F)n3n2)CC1 [Example 53, 1-(8-(((5,6-dichloro-1H-benzo[d]imidazol-2-yl)methyl)amino)-3-(trifluoromethyl)imidazo[1,2-b]pyridazin-6-yl)-4-methylpiperidin-4-ol] | 100 to 500 |  | ≤ 50 | < 300 | 100 to 500 |  |
| FC(F)(F)c1cnc2c(NCc3cc4ncccn4n3)cc(N3CCOCC3)nn12 [Example 89, 6-morpholino-N-(pyrazolo[1,5-a]pyrimidin-2-ylmethyl)-3-(trifluoromethyl)imidazo[1,2-b]pyridazin-8-amine] | < 100 | < 100 | > 500 | > 3000 |  |  |
| CC#Cc1cnc2c(NCc3nc4ccc(F)c(F)c4[nH]3)cc(-c3cnc(N)nc3)nn12 [Example 20, 6-(2-aminopyrimidin-5-yl)-N-((6,7-difluoro-1H-benzo[d]imidazol-2-yl)methyl)-3-(prop-1-yn-1-yl)imidazo[1,2-b]pyridazin-8-amine] | > 500 |  | 50 to 500 | 300 to 3000 | 100 to 500 |  |
| FC(F)(F)c1cnc2c(NCc3cn4ncccc4n3)cc(N3CCOCC3)nn12 [Example 85, N-(imidazo[1,2-b]pyridazin-2-ylmethyl)-6-morpholino-3-(trifluoromethyl)imidazo[1,2-b]pyridazin-8-amine] | < 100 | < 100 | > 500 | > 3000 |  |  |
| CN1C2CC1CN(c1cc(NCc3nc4cc(Cl)c(Cl)cc4[nH]3)c3ncc(C(F)(F)F)n3n1)C2 [Example 98, N-((5,6-dichloro-1H-benzo[d]imidazol-2-yl)methyl)-6-(6-methyl-3,6-diazabicyclo[3.1.1]heptan-3-yl)-3-(trifluoromethyl)imidazo[1,2-b]pyridazin-8-amine] | < 100 |  | ≤ 50 | < 300 | < 100 |  |
| FC(F)(F)c1cc2nc(CNc3cc(N4CCOCC4)nn4c(C(F)(F)F)cnc34)[nH]c2cc1C(F)(F)F [Example 81, N-((5,6-bis(trifluoromethyl)-1H-benzo[d]imidazol-2-yl)methyl)-6-morpholino-3-(trifluoromethyl)imidazo[1,2-b]pyridazin-8-amine] | > 500 |  | 50 to 500 | 300 to 3000 | 100 to 500 |  |

More lines, main results first:

| IC50 [1, 5] [nM] | IC50 [2] [nM] | IC50 [3] [nM] | IC50 [4] [nM] | IC50 [2, 6] [nM] | Compound | IC50 [1] [nM] |
| --- | --- | --- | --- | --- | --- | --- |
| 100 to 500 | 100 to 500 | 50 to 500 | 300 to 3000 |  | Fc1ccc2nc(CNc3cc(N4CCN(C5CC5)CC4)nn4c(C(F)(F)F)cnc34)[nH]c2c1F [Example 28, 6-(4-cyclopropylpiperazin-1-yl)-N-((6,7-difluoro-1H-benzo[d]imidazol-2-yl)methyl)-3-(trifluoromethyl)imidazo[1,2-b]pyridazin-8-amine] |  |
| > 500 |  | > 500 | > 3000 | 100 to 500 | CC#Cc1cnc2c(NCc3nc4ccc(F)c(F)c4[nH]3)cc(N3CCOCC3)nn12 [Example 24, N-((6,7-difluoro-1H-benzo[d]imidazol-2-yl)methyl)-6-morpholino-3-(prop-1-yn-1-yl)imidazo[1,2-b]pyridazin-8-amine] |  |
| < 100 |  | ≤ 50 | < 300 | < 100 | Cc1cc2[nH]c(CNc3cc(N4CCOCC4)nn4c(C(F)(F)F)cnc34)nc2cc1C(F)(F)F [Example 80, N-((6-methyl-5-(trifluoromethyl)-1H-benzo[d]imidazol-2-yl)methyl)-6-morpholino-3-(trifluoromethyl)imidazo[1,2-b]pyridazin-8-amine] |  |
| < 100 |  | 50 to 500 | 300 to 3000 | < 100 | FC(F)(F)c1cnc2c(NCc3nc4ccncc4[nH]3)cc(N3CCOCC3)nn12 [Example 74, N-((3H-imidazo[4,5-c]pyridin-2-yl)methyl)-6-morpholino-3-(trifluoromethyl)imidazo[1,2-b]pyridazin-8-amine] |  |
| 100 to 500 | < 100 | 50 to 500 | 300 to 3000 |  | C#Cc1cnc2c(NCc3nc4ccc(F)c(F)c4[nH]3)cc(N3CCOCC3)nn12 [Example 1, N-((6,7-difluoro-1H-benzo[d]imidazol-2-yl)methyl)-3-ethynyl-6-morpholinoimidazo[1,2-b]pyridazin-8-amine] |  |
|  |  | 50 to 500 | 300 to 3000 |  | N#CC1CN(c2cc(NCc3nc4ccc(F)c(F)c4[nH]3)c3ncc(C(F)(F)F)n3n2)C1 [Example 54, 1-(8-(((6,7-difluoro-1H-benzo[d]imidazol-2-yl)methyl)amino)-3-(trifluoromethyl)imidazo[1,2-b]pyridazin-6-yl)azetidine-3-carbonitrile] |  |
